From PubChem BioAssay (NCI)
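In this assay, cells in 96-well plates receive the compound at five concentrations for 48 hours. Endpoints are linearly interpolated between the surrounding concentrations. GI50 = concentration required for 50% inhibition of growth. TGI: total growth inhibition.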

Legend:
Experiment in all cases: NCI anticancer screen, dose series, 48 h
[1] = system: OVCAR-8 ovarian
[2] = system: EKVX NSCLC
[3] = system: NCI/ADR-RES ovarian
[4] = system: U251 CNS
[5] = system: MALME-3M melanoma
[6] = system: SK-MEL-2 melanoma
[7] = system: SN12C renal
[8] = system: XF 498 CNS
[9] = system: HCT-15 colon
[10] = system: M14 melanoma
[11] = system: TK-10 renal

Compound	TGI [1]	TGI [2]	TGI [3]	TGI [4]	TGI [5]	TGI [6]	TGI [7]	TGI [8]	TGI [9]	TGI [10]	TGI [11]	GI50 [4]
CC(C)C1NC(=O)CC(c2ccccc2)N(N=O)C1c1ccccc1 (centres undefined)	> 100 µM	> 100 µM	> 100 µM	> 100 µM	> 100 µM	> 100 µM	> 100 µM	> 100 µM	> 100 µM	–	–	–
COc1cc(C2(c3ncc[nH]3)SSSCC2O)ccc1O (centres undefined)	> 100 µM	> 100 µM	> 62.8 µM	> 100 µM	–	> 100 µM	> 100 µM	> 100 µM	> 100 µM	–	–	–
COc1cc(OC)cc(-c2cc(=O)c3cc4c(cc3[nH]2)OCO4)c1	9.55 µM	> 100 µM	–	> 31.9 µM	> 100 µM	4.46 µM	30 µM	2.58 µM	22.8 µM	> 48.1 µM	55 µM	–
C/C=C1\CN2CCc3c([nH]c4ccccc34)C2CC1CCO (centres undefined)	> 100 µM	> 100 µM	–	> 100 µM	> 100 µM	> 100 µM	> 100 µM	> 100 µM	> 100 µM	> 100 µM	> 100 µM	–
C/C(=N\NC(=O)c1ccccc1O)c1cccc(/C(C)=N/NC(=O)c2ccccc2O)n1.O=S(=O)([O-])[O-].[Fe+2]	> 100 µM	> 100 µM	–	> 100 µM	> 100 µM	> 100 µM	–	> 100 µM	> 100 µM	> 100 µM	> 100 µM	59.1 µM
O=C(c1ccc(Cl)cc1)c1ccc(OCCCOc2ccc(C(=O)c3ccc(Cl)cc3)cc2Cl)c(Cl)c1	> 100 µM	> 100 µM	–	> 100 µM	> 100 µM	> 100 µM	> 100 µM	> 100 µM	> 100 µM	> 100 µM	> 100 µM	–
Cn1c2ccccc2c(=O)c2c(O)cc3c(c21)C=CC(C)(C)O3	–	> 25 µM	> 25 µM	> 25 µM	> 25 µM	> 25 µM	> 25 µM	> 25 µM	> 25 µM	–	–	–
CSCSCC(CO)NC(=O)/C(C)=C\c1c(C)[nH]c(=O)[nH]c1=O (centres undefined)	> 250 µM	> 250 µM	> 250 µM	> 250 µM	> 250 µM	> 250 µM	> 250 µM	> 224 µM	> 250 µM	–	–	–
Cn1cc2ccccc2c1-c1nc(F)nc(Oc2ccc3c(c2)CC[C@@H]2C3CC[C@@]3(C)C2C[C@H](O)[C@@H]3O)n1 (some centres undefined)	34.1 µM	40.7 µM	–	23.5 µM	75.4 µM	38.1 µM	31.6 µM	60.3 µM	24.6 µM	32.2 µM	54.6 µM	–
